molecular target: T1, BaF3 TELJAK3 cells (Homo sapiens, UniProt P52333); experiment: Cellular screening, BaF3 TEL:JAK3 cells, Alamar Blue; type: cell-based; conditions: 40 hr, read-out: BafT_J3 IC50_nM
T1 construct: fused on or other part: TEL (ETV6) N-terminal part, coding nucleotides 1-487, serves as the oligomerising partner; It is fused through a Sal I site to the JAK3 kinase domain and expressed from pTRE2 in BaF3 cells bearing pTET-off; P41212 (Transcription factor ETV6)
T1 sequence (P52333 1-1124): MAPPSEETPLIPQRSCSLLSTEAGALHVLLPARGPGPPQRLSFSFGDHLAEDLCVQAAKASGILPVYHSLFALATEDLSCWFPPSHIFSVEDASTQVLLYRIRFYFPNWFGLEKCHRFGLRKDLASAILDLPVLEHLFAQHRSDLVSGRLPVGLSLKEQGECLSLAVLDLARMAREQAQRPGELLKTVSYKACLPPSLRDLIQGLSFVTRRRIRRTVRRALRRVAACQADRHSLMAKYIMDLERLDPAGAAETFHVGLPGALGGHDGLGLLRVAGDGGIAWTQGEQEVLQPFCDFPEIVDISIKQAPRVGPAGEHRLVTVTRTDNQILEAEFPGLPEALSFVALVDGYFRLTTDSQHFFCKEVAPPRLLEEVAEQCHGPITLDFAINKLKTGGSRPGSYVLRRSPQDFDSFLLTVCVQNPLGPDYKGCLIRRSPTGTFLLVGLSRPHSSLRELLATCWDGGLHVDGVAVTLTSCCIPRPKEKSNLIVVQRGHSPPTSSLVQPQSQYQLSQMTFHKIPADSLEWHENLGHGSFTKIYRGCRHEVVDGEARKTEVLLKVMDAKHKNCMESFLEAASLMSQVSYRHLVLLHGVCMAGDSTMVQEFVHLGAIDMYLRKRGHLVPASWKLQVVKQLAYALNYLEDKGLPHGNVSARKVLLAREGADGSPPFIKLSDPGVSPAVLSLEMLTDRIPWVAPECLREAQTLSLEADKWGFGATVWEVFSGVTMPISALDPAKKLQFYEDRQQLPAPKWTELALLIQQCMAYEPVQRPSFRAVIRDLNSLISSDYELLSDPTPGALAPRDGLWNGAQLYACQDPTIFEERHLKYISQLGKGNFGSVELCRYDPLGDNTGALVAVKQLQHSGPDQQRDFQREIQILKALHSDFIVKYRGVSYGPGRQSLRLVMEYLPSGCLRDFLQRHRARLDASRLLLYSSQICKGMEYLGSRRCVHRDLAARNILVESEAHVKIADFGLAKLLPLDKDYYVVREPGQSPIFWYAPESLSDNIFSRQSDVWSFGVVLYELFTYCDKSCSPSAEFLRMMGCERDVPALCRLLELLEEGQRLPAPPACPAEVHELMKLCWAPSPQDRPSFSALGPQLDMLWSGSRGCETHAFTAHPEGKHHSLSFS
Summary of the method: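 Alamar Blue signal at 544 nm, developed for 4–6 h, measured viability after 40 h of compound treatment at 37 °C, 5% CO2. Cells were growth-factor-independent BaF3 lines transfected with a TEL/JAK3 kinase-domain fusion under tet-off control. They were cultured in DMEM, 10% Tet-approved FBS, lacking WEHI 3B conditioned medium.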

Compound | GI50 [µM]
C=CC(=O)Nc1ccc(Sc2ccnc(Nc3ccc(S(=O)(=O)N4CCOCC4)cc3)n2)cc1 [Compound 367, N-(4-(2-(4-(morpholinosulfonyl)phenylao)pyrimidin-4-ylthio)phenyl)acrylamide] | < 5
C=CC(=O)Nc1ccc(Sc2ccnc(Nc3ccc(S(=O)(=O)NCc4ccccc4)cc3)n2)cc1 [Compound 368, N-(4-(2-(4-(N-benzylsulfamoyl)phenylao)pyrimidin-4-ylthio)phenyl)acrylamide] | < 5
C=CC(=O)Nc1ccc(Sc2ccnc(Nc3ccc(S(=O)(=O)N4CCN(C)CC4)cc3)n2)cc1 [Compound 370, N-(4-(2-(4-(4-methylpiperazin-1-ylsulfonyl)phenylao)pyrimidin-4-ylthio)phenyl)acrylamide] | < 5
C=CC(=O)Nc1ccc(Sc2ccnc(Nc3ccc(S(=O)(=O)NCCC(C)C)cc3)n2)cc1 [Compound 371, N-(4-(2-(4-(N-isopentylsulfamoyl)phenylao)pyrimidin-4-ylthio)phenyl)acrylamide] | < 5
C=CC(=O)Nc1ccc(Sc2ccnc(Nc3cccc(S(=O)(=O)N4CCOCC4)c3)n2)cc1 [Compound 372, N-(4-(2-(3-(morpholinosulfonyl)phenylao)pyrimidin-4-ylthio)phenyl)acrylamide] | < 5
C=CC(=O)Nc1ccc(Sc2ccnc(Nc3ccc(S(=O)(=O)N4CCOCC4)c(OC)c3)n2)cc1 [Compound 373, N-(4-(2-(3-methoxy-4-(morpholinosulfonyl)phenylao)pyrimidin-4-ylthio)phenyl)acrylamide] | < 5
O=C(Nc1ccc(Sc2ccnc(Nc3ccc(N4CCOCC4)cc3)n2)cc1)C1CC1(F)Cl (stereo not drawn) [Compound 378, 2-chloro-2-fluoro-N-(4-(2-(4-morpholinophenylao)pyrimidin-4-ylthio)phenyl)cyclopropanecarboxamide] | < 1
Cc1cnc(Nc2ccc(N3CCOCC3)cc2)nc1Sc1ccc(NC(=O)/C(Br)=C\C(=O)O)cc1 [Compound 381, (E)-3-bromo-4-(4-(5-methyl-2-(4-morpholinophenylao)pyrimidin-4-ylthio)phenylao)-4-oxobut-2-enoic acid] | < 20
Cc1cnc(Nc2ccc(N3CCOCC3)cc2)nc1Sc1ccc(NC(=O)CCC(=O)O)cc1 [Compound 383, 4-(4-(5-methyl-2-(4-morpholinophenylao)pyrimidin-4-ylthio)phenylao)-4-oxobutanoic acid] | > 20
Cc1cnc(Nc2ccc(N3CCOCC3)cc2)nc1Sc1ccc(N2C(=O)CCC2=O)cc1 [Compound 384, 1-(4-(5-methyl-2-(4-morpholinophenylao)pyrimidin-4-ylthio)phenyl)pyrrolidine-2,5-dione] | > 20
CNC(=O)CCC(=O)Nc1ccc(Sc2nc(Nc3ccc(N4CCOCC4)cc3)ncc2C)cc1 [Compound 386, N1-methyl-N4-(4-(5-methyl-2-(4-morpholinophenylao)pyrimidin-4-ylthio)phenyl)succinamide] | > 20
Cc1cnc(Nc2ccc(N3CCOCC3)cc2)nc1Sc1ccc(NC(=O)/C=C/C(=O)O)cc1 [Compound 387, (E)-4-(4-(5-methyl-2-(4-morpholinophenylao)pyrimidin-4-ylthio)phenylao)-4-oxobut-2-enoic acid] | > 20
CCOC(=O)/C=C\C(=O)Nc1ccc(Sc2nc(Nc3ccc(N4CCOCC4)cc3)ncc2C)cc1 [Compound 388, (Z)-ethyl 4-(4-(5-methyl-2-(4-morpholinophenylao)pyrimidin-4-ylthio)phenylao)-4-oxobut-2-enoate] | < 5
Cc1cnc(Nc2ccc(N3CCOCC3)cc2)nc1Sc1ccc(N2C(=O)C=CC2=O)cc1 [Compound 390, 1-(4-(5-methyl-2-(4-morpholinophenylao)pyrimidin-4-ylthio)phenyl)-1H-pyrrole-2,5-dione] | < 5
C=CC(=O)Nc1ccc(Sc2ccnc(Nc3ccc4c(c3)OCO4)n2)cc1 [Compound 393, N-(4-(2-(benzo[d][1,3]dioxol-5-ylao)pyrimidin-4-ylthio)phenyl)acrylamide] | < 1

From patent US8846704B2, “Thiopyrimidine-based compounds and uses thereof” (YM Biosciences Austraila Pty Ltd, priority 2007, dated 2014)
